# Assay results reported in article PMC12471852, “Design and Synthesis of Marine-Inspired Itampolin A Derivatives to Overcome Chemoresistance in NSCLC via Cholesterol Homeostasis Modulation” (Marine Drugs, 2025).
# pIC50: −log10 of the molar value. “And” between values parts separate entries of the source, which are not always exact repeats. Identical values can stand only once. “Also recorded” adds a separate entry of the source.
# Assays:
# PC9/GR cells [1] = assay: Annexin V-FITC/PI apoptosis, flow cytometry; type: cell-based, human; conditions: 24 h, vehicle control 5.2%
# Procedure: (§1) To evaluate the tumor-selective activity of compounds 4l and 4m, dose–response studies were performed on wild-type PC9 and gefitinib-resistant PC9/GR cell lines. […] Subtoxic concentrations of 25, 50, and 75 μM were employed to ensure specificity for drug-resistant phenotypes while preserving normal cell viability. […] To assess long-term proliferative potential, clonogenic survival assays were performed. Cells pretreated with 4l (24 h) were trypsinized to generate single-cell suspensions, plated at 300 cells/well, and cultured for 14 days. […] Cell migration ability was evaluated by the scratch healing assay. […] To evaluate the pro-apoptotic efficacy of 4l, we employed a dual-staining approach using Annexin V-FITC and propidium iodide (PI) for quadrant-specific quantification of programmed cell death. Annexin V binds externalized phosphatidylserine (PS), a hallmark of early apoptosis, while PI permeabilization discriminates late-stage apoptotic or necrotic cells.
# Annexin V/PI Apoptosis: 4l treated cells were stained with Annexin VFITC/PI (15 min, dark), analyzed by flow cytometry (Q2/Q3: late/early apoptosis).
# TM7SF2 = assay: Transcriptome sequencing, differentially expressed genes; type: cell-based, human; conditions: 4l-treated vs untreated PC9/GR
# Description: By comparing PC9/GR treated with the small molecule compound 4l against untreated PC9/GR controls, we identified significant differentially expressed genes (DEGs). […] The results of the GO enrichment analysis further emphasized the significant impact of the small molecule compound 4l on steroid biosynthesis and metabolism in lung cancer cells, with the top five pathways being steroid biosynthesis, steroid metabolism, the metabolism of hydroxylated compounds, steroid biosynthesis, and cholesterol biosynthesis (Figure 4C). […] TM7SF2 has been identified as a critical regulator of cholesterol biosynthesis and steroid metabolism in lung cancer cells, a finding central to overcoming chemoresistance in NSCLC [28]. Thus, we selected TM7SF2 as the target gene for further experiments and investigated the protein expression of TM7SF2 in 4l-treated PC9/GR cells using immunoblotting.
# PC9/GR cells [2] = assay: Clonogenic survival / colony formation assay; type: cell-based, human; conditions: 24 h pretreatment, 14 days culture, p < 0.05 vs untreated controls
# Procedure: as §1
# Clonogenic Survival: Single-cell suspensions (300 cells/well) were cultured for 14 days. Colonies (>50 cells) were fixed (4% PFA), stained with crystal violet, and counted.
# PC9/GR cells were seeded into 6-well plates at a density of […] and cultured in a 37 °C incubator for 2 weeks. The culture medium was then discarded, and the cells were washed with PBS. […] Finally, the number of cell colonies was counted.
# PC9/GR cells [3] = assay: MTT anti-proliferation assay, gefitinib-resistant PC9/GR cells; type: cell-based, human; conditions: for MTT, PC9/GR, value relative to control (=100), single replicate: 24 h
# Procedure: as §1
# (§2) The human normal lung epithelial cell line BEAS-2B, non-small cell lung carcinoma (NSCLC) cell line PC9, and gefitinib-resistant PC9/GR cell line were purchased from Procell Life Science & Technology Co., Ltd. (Wuhan, China). All cell lines were maintained in RPMI-1640 medium (BI, Beit Haemek, Mateh Asher, Israel) supplemented with 10% fetal bovine serum (FBS, Gibco, Thermo Fisher Scientific, Waltham, MA, USA) and 1% penicillin–streptomycin–amphotericin B sterile solution (Solarbio, Beijing, China). Cells were cultured at 37 °C in a humidified incubator with 5% CO2. For subculturing, cells were harvested using trypsin-EDTA solution upon reaching 70–80% confluence and resuspended at appropriate densities for subsequent experiments.
# (§3) MTT: Cells (5 × 10^4/mL) were treated with 4l (25–100 μM, 24–48 h), incubated with MTT (10 μL/well, 4–6 h), and dissolved in DMSO. Absorbance (490 nm) was measured to assess viability.
# PC9 cells [4] = assay: MTT anti-proliferation assay, PC9 cells; type: cell-based, human; conditions: for MTT, PC9, value relative to control (=100), single replicate: 24 h
# Procedure: as §1, §2, §3
# PC9/GR cells [5] = assay: Intracellular total cholesterol quantification, PC9/GR cells; type: cell-based, human
# Procedure: (§4) Following sample collection, intracellular total cholesterol levels were quantified using a commercial Total Cholesterol (T-CHO) assay kit (Nanjing Jiancheng Bioengineering Institute, Nanjing, China) according to the manufacturer’s protocol. Cells were treated as indicated 24 h prior to analysis. Total cellular protein was extracted, and protein concentration was determined using a bicinchoninic acid (BCA) assay. Protein aliquots were loaded in duplicate into a 96-well microplate. Reagents were added sequentially as specified in the kit instructions. After incubation at 37 °C for 10 min, absorbance was measured at 510 nm using a microplate reader. Total cholesterol content was normalized to cellular protein concentration and expressed as μg cholesterol per mg protein.
# PC9 cells [6] = assay: Intracellular total cholesterol quantification, PC9 cells; type: cell-based, human; conditions: PC9, 24 h treatment
# Procedure: as §4
# [7] = Body weight / toxicity monitoring in tumor-bearing nude mice; type: in vivo, BALB/c nude mice
# Description: For many years, the technique of implanting human tumor cell lines into nude mice models has been widely used to predict the anti-cancer effects of targeted anti-cancer drugs. In the nude mouse tumor implantation experiment, we continuously monitored the changes in the mouse body weight after administration. […] At the end of the experiment, after euthanizing the nude mice using the spinal dislocation method, we isolated the tumor tissues, weighed them, and conducted statistical analysis.
# BALB/c nude mice (n = 12) were subcutaneously injected with PC9/GR cells (1 × 10^7 cells/mouse). When tumors reached 50 mm^3, mice received daily 4l or vehicle (3 weeks). Tumor volume (0.52 × length × width^2) and weight were recorded post-euthanasia.
# PC9/GR cells [8] = assay: BODIPY 493/503 lipid droplet staining; type: cell-based, human
# Description: To investigate the relationship between intracellular cholesterol levels and gefitinib resistance, we measured cholesterol content in PC9 (gefitinib-sensitive) and PC9/GR (gefitinib-resistant) cells. […] To further elucidate the role of TM7SF2 in mediating the cholesterol-lowering effects of compound 4l in PC9/GR cells, we generated a TM7SF2-overexpressing PC9/GR cell line via plasmid transfection.
smiles,measurement,setting,value
"O=C(NCCc1cc(Br)c(O)c(Br)c1)Nc1ccc(F)cc1 [4l, 1-(3,5-dibromo-4-hydroxyphenethyl)-3-(4-fluorophenyl)urea]",total apoptosis,PC9/GR cells [1]; 25 μM,9.1%
same,total apoptosis,PC9/GR cells [1]; 50 μM,13.13%
same,total apoptosis,PC9/GR cells [1]; 75 μM,19.53%
same,TM7SF2 gene expression (differentially expressed genes),TM7SF2,significantly downregulated
same,colony formation,PC9/GR cells [2],statistically significant inhibition
same,"MTT, PC9/GR, value relative to control (=100), single replicate",PC9/GR cells [3]; 25 (μM),50.73 and 45.72 and 48.62 and 42.88
same,"MTT, PC9/GR, value relative to control (=100), single replicate",PC9/GR cells [3]; 50 (μM),40.96 and 39.65 and 38.32 and 38.58
same,"MTT, PC9/GR, value relative to control (=100), single replicate",PC9/GR cells [3]; 75 (μM),35.79 and 34.89 and 36.33 and 34.75
same,"MTT, PC9/GR, value relative to control (=100), single replicate",PC9/GR cells [3]; 100 (μM),32.66 and 25.67 and 34.43 and 24.78
same,pIC50,"PC9/GR cells [3]; Homo sapiens, gefitinib-resistant PC9/GR, MTT, 24-hour treatment, 0–100 μM, read-out: IC50, growth inhibition",4.45
same,"MTT, PC9, value relative to control (=100), single replicate",PC9 cells [4]; 25 (μM),96.45 and 96.61 and 99.63 and 98.61
same,"MTT, PC9, value relative to control (=100), single replicate",PC9 cells [4]; 50 (μM),81.78 and 87.43 and 80.72 and 89.73
same,"MTT, PC9, value relative to control (=100), single replicate",PC9 cells [4]; 75 (μM),88.89 and 73.34 and 79.63 and 70.04
same,"MTT, PC9, value relative to control (=100), single replicate",PC9 cells [4]; 100 (μM),57.64 and 69.62 and 60.69 and 61.33
same,pIC50,"PC9 cells [4]; Homo sapiens, PC-9, wild-type PC9, MTT, 24-hour treatment, 0–100 μM, read-out: IC50, growth inhibition",3.87
same,intracellular cholesterol levels,"PC9/GR cells [5]; PC9/GR, 24 h treatment",reduced intracellular cholesterol levels
same,effect of TM7SF2 overexpression on the 4l-induced change in intracellular cholesterol,PC9/GR cells [5]; TM7SF2-overexpressing PC9/GR cells,abrogated the reduction in intracellular cholesterol levels
same,intracellular cholesterol levels,PC9 cells [6],no significant effect
same,mouse body weight after administration,"[7]; 200 mg/kg, 21 days",no significant decrease or fluctuation
same,toxicity to nude mice / systemic toxicity,[7]; dosage used in the xenograft experiment,did not have significant toxicity; also recorded: without eliciting systemic toxicity; also recorded: without inducing systemic toxicity
same,lipid droplet accumulation,PC9/GR cells [8],significantly inhibited this lipid accumulation
